Reference: patent US11684675B2, “Dimeric collagen hybridizing peptides and methods of using” (University of Utah Research Foundation, priority 2015, dated 2023)

Columns and labels:
[1] = Triple helix melting point (Tm) by circular dichroism at 225 nm; type: physicochemical; conditions: for melting point: Example 3; for Tm (° C.): triple helix melting
Method: (§1) FIGS. 5A, 5B, 5C, and 5D show the thermal denaturation of fully assembled CHPs and subsequent cooling to initial temperature. Samples were heated at 1° C./min from their initial temperature final temperature of 90° C. Sample was then cooled at 1° C./min to the starting temperature. (A) Thermal denaturation and partial reassembly of CHP CF-6d (150 μM) monitored at 225 nm. Sample was measured from 4° C. to 90° C. (B) Thermal denaturation and partial reassembly of CHP […] (75 μM, corresponding to 150 μM strand concentration) monitored at 225 nm. Sample was measured from 4° C. to 90° C. (C) Thermal denaturation and partial reassembly of CHP CF-9 (150 μM) monitored at 225 nm. Sample was measured from 10° C. to 90° C. (D) Thermal denaturation and partial reassembly of CHP CF-9d (75 μM, corresponding to 150 μM strand concentration) monitored at 225 nm. Sample was measured from 10° C. to 90° C.
FIGS. 11A and 11B show the First Derivative of mean residue ellipticity (MRE) at 225 nm in CD. […] There is no significant change in melting point between the monomeric and dimeric forms of the same peptide.
(§2) Circular Dichroism: Circular Dichroism (CD) was measured for all peptides at 225 nm. Melting curves were taken on peptides between 10 and 80° C. at a heating rate of 0.5° C./min, with pauses at each 1° C. Refolding experiments were performed after peptide solutions were incubated at 4° C. for at least 12 hours. Concentrations were normalized to strand concentration.

[2] = tested on: crosslinked gelatin films; experiment: Binding of CF-labelled CHPs to crosslinked gelatin films at 37° C. with and without preheating; set-up: species or system porcine; conditions: 20 μM, 37° C. overnight, PBS wash 20 h, FIG. 6C
Method: FIGS. 3A and 3B show the affinity of CHPs to gelatin films as monitored by fluorescence of conjugated CF fluorophore (492 ex, 533 em). (A) Fluorescence of CHPs bound to crosslinked gelatin after incubation at 37° C. overnight with no workup. (B) Fluorescence of CHPs remaining in crosslinked gelatin after incubation at 37° C. overnight without preheating, followed by washing with 1×PBS at 37° C. (20 h).
(A) Fraction of peptide remaining in a crosslinked gelatin film after 17 h at 25° C. (10 total washes). Values are normalized to fluorescence remaining in wells after 6 washes at 4° C. (>95% removal of CHPs 9r, 6r, and 5r). All washes performed in 1×PBS. (B) CHPs (15 μM) premixed into 10% porcine gelatin and preheated to 80° C. (10 min) before being added to a 96 well plate. Excess CHP-gelatin mixture was removed, then the premix was incubated at 4° C. for 2 hours. Wells were washed at 4° C., 5 times (>95% removal of CHPs 9r, 6r, and 5r). Wells were then washed for 2 hours (6 washes total) at 25° C. to monitor CHP remaining in the well. (C) Fluorescence of CHPs remaining in crosslinked gelatin after incubation at 37° C. overnight without preheating, followed by washing with 1×PBS at 37° C. (20 h). (D) Fluorescence of CHPs remaining in crosslinked gelatin after incubation at 37° C. overnight (80° C. preheating, 10 min), followed by washing with 1×PBS at 37° C. (20 h).
Dimeric CHPs were assessed for their ability to bind to collagen strands in crosslinked gelatin films. CHP solutions (20 μM in PBS) were added directly to the crosslinked gelatin films. For heated experiments, CHPs were preheated to 80° C. for 10 minutes before addition. Peptides were allowed to fully equilibrate with the gel at 37° C. overnight before being exposed to repeated washes (4×, PBS) at 37° C. to fully remove any non-specifically bound peptide and to determine binding level at body temperature. To measure retention, peptides were bound as previously described, but were subsequently washed with PBS 37° C. (5×1 h, 1×12 h) to measure retention within the gelatin films. […] Additionally, after a period of 20 hours, higher level of the dimeric CHP remained in the gelatin compared to the monomeric CHP.
A major limitation of the use of CHP in vivo, is the requirement of the triple helix to be fully disassembled before being injected. […] For this test, peptide solutions were allowed to warm to room temperature before being added (50 μL, 20 μM) to previously prepared crosslinked gelatin films. Solutions were then incubated at 37° C. overnight before removing the solution. Wells were washed at 37° C. with PBS (20 h) to determine binding. Preheated samples were prepared and incubated in the same way, but with preheating (80° C., 10 min) before being added to the crosslinked gelatin wells.

[3] = CD refolding (triple helix assembly) at 10° C. monitored at 225 nm; type: physicochemical; conditions: for folded after 2 hours: CD refolding
Method: Conversion was assumed to be at 100% after 96 h incubation at 4° C., and max trimer concentration was measured via CD ellipticity at 10° C. Samples were preheated to 80° C. in the sample cuvette for 10 min before being transferred directly to the sample holder held at a constant 10° C. Sample measurement began immediately. Initial time point for analysis was determined by measuring time for a blank (lx PBS) to thermally equilibrate in these conditions.
For all peptides, conversion was assumed to be at 100% after 96 h incubation at 4° C., and max trimer concentration was measured via CD ellipticity at 10° C. Samples were preheated to 80° C. in the sample cuvette for 10 min before being transferred directly to the sample holder held at a constant 10° C. Sample measurement began immediately. Initial time point for analysis was determined by measuring time for a blank (1×PBS) to thermally equilibrate in these conditions. This was set as the zero point for all peptides, as the large jump in CD due to temperature makes the initial jump irresolvable. (A) Rate of assembly of CHP 9 (60, 30, and 15 μM), over 2 h, monitored at 225 nm. (B) Rate of assembly of CHP 9d (30, 15, and 7.5 μM, corresponding to same CHP strand concentration from panel A), over 2 h, monitored at 225 nm. (C) Rate of assembly of CHP 6 (150 and 75 μM), over 2 h, monitored at 225 nm.
FIGS. 12A and 12B show CD refolding at 10° C. of CMPs monitored at 225 nm. CMPs were heated to 80° C. for 5 minutes before being placed into the CD and initial 2 min of monitored data was removed to eliminate thermal transition. Signal was normalized to that of a fully folded peptide.
as §2

[4] = CD thermal denaturation and cooling gradient 90 to 4° C., refolding; type: physicochemical; conditions: cooling 1° C./min from 90° C.
Method: as §1
The dimeric CHPs can also form their triple helices much more readily during slow cooling when compared to their monomeric counterparts. After thermal denaturation and heating to 90° C., the peptides were exposed to a decreasing thermal gradient from 90 to 4° C. (1° C./min) during which the ellipticity at 225 nm was monitored. During these cooling gradients, the dimeric CHPs began refolding at a higher temperature than the monomers with the same number of repeat units. […]

Substance: (GPO)6 [compound 6]
- melting point [1]: 37 °C
- Tm (° C.) ([1]; Table 1): 37 (SEQ ID NO: 59) ° C.
- Tm (° C.) ([1]; Table 2): 37 (SEQ ID NO: 59) ° C.
- binding to gelatin wells at 37° C. without preheating [2]: do not have a strong enough affinity to the gelatin to bind effectively at physiologic temperature
- refolding after two hours of incubation ([3]; 10° C., same strand concentration): did not reach its half maximal refolding after two hours
- folded after 2 hours ([3]; 75 μM): 28%
- temperature below the reported Tm until which no significant refolding was observed [4]: approximately 10 °C

Substance: (GPO)9 [compound 9]
- melting point [1]: 68 °C
- Tm (° C.) ([1]; Table 1): 68 (SEQ ID NO: 56) ° C.
- Tm (° C.) ([1]; Table 2): 68 (SEQ ID NO: 56) ° C.
- binding to gelatin wells at 37° C. without preheating [2]: unable to bind significantly without preheating
- folded after 2 hours ([3]; 60 μM): 40%
- temperature below the reported Tm until which no significant refolding was observed [4]: ~15 °C
